Measured values as given in PubChem BioAssay (NCI).
“And” between values parts separate entries of the source, which are not always exact repeats. Equal values may be shown once.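 Compound exposure: 48 hours, 5 concentrations, 96-well plates. GI50 is the concentration that inhibits growth by half. At the TGI there is no net growth.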

Key:
Experiment in all cases: inhibition of tumour cell growth, NCI panel, 48 h
DU-145 prostate = test system: DU-145 prostate
HCC-2998 colon = test system: HCC-2998 colon
HL-60(TB) leukemia = test system: HL-60(TB) leukemia
HT29 colon = test system: HT29 colon
NCI-H522 lung = test system: NCI-H522 lung
RXF 393 renal = test system: RXF 393 renal
SK-MEL-28 melanoma = test system: SK-MEL-28 melanoma
SW-620 colon = test system: SW-620 colon
T-47D breast = test system: T-47D breast
UO-31 renal = test system: UO-31 renal

Structure (SMILES) | GI50 (DU-145 prostate) | TGI (DU-145 prostate) | GI50 (HCC-2998 colon) | TGI (HCC-2998 colon) | GI50 (HL-60(TB) leukemia) | TGI (HL-60(TB) leukemia) | GI50 (HT29 colon) | TGI (HT29 colon) | GI50 (NCI-H522 lung) | TGI (NCI-H522 lung) | GI50 (RXF 393 renal) | TGI (RXF 393 renal) | GI50 (SK-MEL-28 melanoma) | TGI (SK-MEL-28 melanoma) | GI50 (SW-620 colon) | TGI (SW-620 colon) | GI50 (T-47D breast) | TGI (T-47D breast) | GI50 (UO-31 renal) | TGI (UO-31 renal)
CO[C@H]1CC(c2ccc[nH]2)=N[C@]12O[C@@H](C)C[C@@H]1CCCCCCCc3ccc([nH]3)[C@H]12 | 1.49 µM | > 23.1 µM | 0.814 µM | 5.54 µM | 1.24 µM | 4.97 µM | 1.04 µM | > 33.3 µM | 1.29 µM | 9.98 µM | 0.807 µM | 7.53 µM | 1.92 µM | 8.26 µM | 1.05 µM | 7.96 µM | 0.732 µM | > 19.2 µM | 0.932 µM | 4.2 µM
CCCNc1nc2ccccc2c2c1S(=O)(=O)c1ccc(Cl)cc1C2=O | 1.57 µM | > 50 µM | 1.62 µM | 34.4 µM | 1.49 µM | > 50 µM | 1.65 µM | > 50 µM | 1.17 µM | > 50 µM | 0.263 µM | 1.57 µM | 1.61 µM | > 50 µM |  |  | 1.35 µM | > 50 µM | 1.11 µM | > 50 µM
CNC(=O)OCC1C2=C(C(=O)C(C)=C(N)C2=O)N2CC3C(N3C)C12OC (centres undefined) |  | 55 µM |  | 24.8 µM |  | 21.1 µM |  | 34.7 µM |  | 19.2 µM |  | 57.1 µM |  | > 100 µM |  | 24.2 µM |  | > 100 µM |  | 
CCN(CC)CCOc1ccc(C(=O)/C=C\c2ccc(Cl)cc2Cl)cc1 | 10.3 µM | 22 µM | 2.18 µM | 4.65 µM | 2.67 µM | 6.25 µM | 2.06 µM | 5.62 µM | 15.2 µM | 35.6 µM | 5.13 µM | 18.1 µM | 2.55 µM | 7.75 µM | 1.87 µM | 4.36 µM | 11.9 µM | 33.6 µM | 4.06 µM | 17.2 µM
COc1cc(/C=C/C(=O)c2cccnc2Nc2ccc(F)cc2)cc(OC)c1OC | 3.32 µM | 12.4 µM | 1.78 µM | 3.45 µM | 2.4 µM | 7.15 µM | 2.75 µM | 6.69 µM | 2.69 µM | 7.04 µM | 2.81 µM | 8.97 µM | 3.22 µM | 17.3 µM | 3.3 µM | 24.1 µM | 3.96 µM | 25 µM | 5.62 µM | 48 µM
COc1cc2c3c(n(CCCN=[N+]=[N-])c(=O)c2cc1OC)-c1ccc(N(C)C)cc1C3=O | > 100 µM | > 100 µM | > 100 µM | > 100 µM | > 100 µM | > 100 µM | > 100 µM | > 100 µM | > 100 µM | > 100 µM | > 100 µM | > 100 µM | > 100 µM | > 100 µM | > 100 µM | > 100 µM | > 100 µM | > 100 µM | > 100 µM | > 100 µM
CC(C)COC(=O)c1ccc2[nH]c(O)c(C=Nc3ccc(S(N)(=O)=O)cc3)c2c1 | 0.805 µM | 3.8 µM | 3.27 µM | 9.03 µM | 0.68 µM | 2.38 µM | 1.63 µM | 5.21 µM | 4.03 µM | 8.5 µM | 0.747 µM | 1.61 µM | 1.69 µM | 4.75 µM | 0.671 µM | 3.83 µM | 2.51 µM | 12.6 µM | 2.44 µM | 10.2 µM
CC(=O)Oc1ccc(C(c2ccc(OC(C)=O)cc2)c2ccccn2)cc1 | 98.2 µM | > 100 µM | 11.3 µM | > 100 µM | 25.4 µM | 70 µM and 69.7 µM |  | > 100 µM | 59 µM | > 100 µM | 3.67 µM | 96.9 µM and > 95.7 µM | 61.5 µM | > 100 µM |  | > 100 µM | 0.204 µM | 0.532 µM and 1.19 µM | 21.4 µM | > 100 µM
CCN(CC)CCSCCCNc1c2ccc(Cl)cc2nc2ccc(OC)cc12 | 0.633 µM | 3.01 µM | 1.02 µM | 2.42 µM | 1.55 µM | 4.11 µM | 0.423 µM | 1.94 µM | 1.39 µM | 3.13 µM | 0.925 µM | 2.38 µM | 1.84 µM | 3.8 µM | 0.511 µM | 3.33 µM | 2.05 µM | 4.82 µM | 1.27 µM | 3.29 µM
COc1ccc(OC)c(Nc2nc(-c3c(C)nc4sccn34)cs2)c1 | > 100 µM | > 100 µM | > 100 µM | > 100 µM | > 100 µM | > 100 µM | > 100 µM | > 100 µM | 52.6 µM | > 100 µM | 36.3 µM | > 100 µM | 58.9 µM | > 100 µM | > 100 µM | > 100 µM | 5.43 µM | > 100 µM | 29 µM | > 100 µM
OCCN1CCN(CC/C=C2\c3ccccc3Sc3ccc(Cl)cc32)CC1 | 5.18 µM and 7.27 µM | 17.4 µM and 19.7 µM | 1.99 µM and 1.68 µM | 3.8 µM and 3.16 µM | 4.04 µM | 3.71 µM and 9.92 µM | 1.72 µM and 1.69 µM | 3.92 µM and 3.42 µM | 11.6 µM and 1.75 µM | 29.1 µM and 3.38 µM | 4.16 µM | 11.4 µM | 1.66 µM | 3.91 µM and 3.03 µM | 2.38 µM and 1.91 µM | 5.48 µM and 4.01 µM | 2.9 µM and 2.79 µM | 10.4 µM and 11.5 µM | 2.14 µM and 1.96 µM | 7.66 µM and 6.24 µM
CC(Br)C(=O)Nc1ccc(C(=O)O)c(O)c1 (centres undefined) |  | > 100 µM |  |  |  | > 100 µM |  | > 100 µM |  | 47.1 µM |  | > 100 µM |  | > 100 µM |  | > 100 µM |  | > 100 µM |  | > 100 µM
Cc1cccc(Nc2cnc(N)nc2N)c1 |  | > 100 µM |  | > 100 µM |  | > 100 µM |  | > 100 µM |  | > 100 µM |  | > 100 µM |  | > 100 µM |  | > 100 µM |  | > 100 µM |  | > 100 µM
CN1C(Cl)=NS(=O)(=O)c2ccccc21 |  | > 100 µM |  | > 100 µM |  | > 100 µM |  | > 100 µM |  | > 100 µM |  | > 100 µM |  | > 100 µM |  | > 100 µM |  | > 100 µM |  | > 100 µM
